Reference: US20110280958A1 (priority 2010, published 2011)

Assays:
Alternaria solani = details: in vivo
Phytophthora infestans = details: in vivo
Venturia inaequalis = experiment: Venturia test (apples)/preventive; type: in vivo; details: preventive spray, evaluated 10 days after inoculation
Procedure: Solvent: 24.5 parts by weight of acetone • 24.5 parts by weight of dimethylacetamide
Emulsifier: 1 part by weight of alkylaryl polyglycol ether
To produce a suitable preparation of active compound, 1 part by weight of active compound is mixed with the stated amounts of solvent and emulsifier, and the concentrate is diluted with water to the desired concentration. To test for preventive activity, young plants are sprayed with the preparation of active compound at the stated rate of application. After the spray coating has dried on, the plants are inoculated with an aqueous conidia suspension of the causal agent of apple scab (Venturia inaequalis) and then remain for 1 day in an incubation cabinet at approximately 20° C. and a relative atmospheric humidity of 100%. The plants are then placed in a greenhouse at approximately 21° C. and a relative atmospheric humidity of approximately 90%. The test is evaluated 10 days after the inoculation. 0% means an efficacy which corresponds to that of the untreated control, while an efficacy of 100% means that no disease is observed.

Structure (SMILES)	Efficacy in % found (Alternaria solani) [%]	Efficacy in % found (Phytophthora infestans) [%]	Efficacy in % found (Venturia inaequalis; 250 ppm a.i.) [%]	Efficacy in % found (Venturia inaequalis; 25 ppm a.i.) [%]
O=S(=O)([O-])[O-].[Mg+2] [(1-2), magnesium sulphate]	0	–	–	–
O=S(=O)([O-])[O-].[Mn+2] [(3-2), manganese sulphate]	0	0	–	–
O=S(=O)([O-])[O-].[Fe+2] [(3-3), iron sulphate]	35	–	43	–
O=S(=O)([O-])[O-].[Zn+2] [(3-7), zinc sulphate]	23	35	19	–
Cn1c(=O)c2sc3c(=O)n(C)c(=O)c3sc2c1=O [(I-1), 2,6-dimethyl-1H,5H-[1,4]dithiino[2,3-c:5,6-c′]dipyrrole-1,3,5,7(2H,6H)-tetrone]	–	9	–	32
